Test results: ChEMBL document CHEMBL2321741, “Discovery and optimization of potent broad-spectrum arenavirus inhibitors derived from benzimidazole” (Bioorg Med Chem Lett, 2013)
Active and inactive are the calls of the source. The calls are words filed in the database; no cut-off is given here.

Columns and labels:
Lassa virus [1] = experiment: Antiviral activity against Lassa virus pseudovirions infected in HEK293T/17 cells after 72 hrs by luciferase reporter gene assay; format: functional, organism-based; conditions: Mammarenavirus lassaense, HEK-293T
Lassa virus [2] = experiment: Antiviral activity against Lassa virus pseudovirions infected in HEK293T/17 cells at 50 uM after 72 hrs by luciferase reporter gene assay; format: functional, organism-based; conditions: Mammarenavirus lassaense, HEK-293T
Sabia virus = experiment: Antiviral activity against Sabia virus pseudovirions infected in HEK293T/17 cells after 72 hrs by luciferase reporter gene assay; format: functional, cell-based; conditions: HEK-293T
Junin virus = experiment: Antiviral activity against Junin virus pseudovirions infected in HEK293T/17 cells after 72 hrs by luciferase reporter gene assay; format: functional, organism-based; conditions: Mammarenavirus juninense, HEK-293T
Machupo mammarenavirus = experiment: Antiviral activity against Machupo virus pseudovirions infected in HEK293T/17 cells after 72 hrs by luciferase reporter gene assay; format: functional, cell-based; conditions: Mammarenavirus machupoense, HEK-293T
Lassa virus [3] = experiment: Antiviral activity against Lassa virus infected in guinea pig strain 13 assessed as host survival rate at 25 mg/kg/day, ip administered at 1 hr prior to infection for 14 days relative to control; format: functional, Mammarenavirus lassaense; conditions: route intraperitoneal
Lassa virus [4] = experiment: Antiviral activity against Lassa virus infected in guinea pig strain 13 assessed as reduction in viral titre in plasma at 25 mg/kg/day, ip administered at 1 hr prior to infection for 14 days relative to control; format: functional, Mammarenavirus lassaense; conditions: route intraperitoneal
Guanarito virus = experiment: Antiviral activity against Guanarito virus pseudovirions infected in HEK293T/17 cells after 72 hrs by luciferase reporter gene assay; format: functional, cell-based; conditions: Mammarenavirus guanaritoense, HEK-293T
Lassa virus [5] = experiment: Antiviral activity against Lassa virus infected in guinea pig strain 13 assessed as host survival rate at 80 mg/kg/day, ip administered at 1 hr prior to infection for 14 days relative to control; format: functional, Mammarenavirus lassaense; conditions: route intraperitoneal

COc1ccc(-n2cnc3cc(NCc4ccccc4O)ccc32)cc1 gave an EC50 (Lassa virus [1]) of 310 nM.
In the case of COc1ccc(-n2cnc3cc(NCc4cccc(OC)c4)ccc32)cc1, the EC50 (Lassa virus [1]) is reported as 35 nM.
Cc1ccc(CNc2ccc3c(c2)ncn3C2CCCCC2)cc1 was tested, and the EC50 (Lassa virus [1]) was 320 nM.
For CCCNc1ccc2c(c1)ncn2-c1ccc(OC)cc1, the Activity (Lassa virus [2]) was “inactive”.
In the case of CCCCOc1ccc(CNc2ccc3c(c2)ncn3-c2ccc(OC)cc2)cc1, the EC50 (Lassa virus [1]) is reported as 6 nM.
Compound COc1ccc(-n2cnc3cc(NCc4ccc(CN(C)C)cc4)ccc32)cc1 has an EC50 (Lassa virus [1]) of 270 nM.
In the case of COc1ccc(-n2cnc3cc(NC(=O)c4ccc(C)cc4)ccc32)cc1, the EC50 (Lassa virus [1]) is reported as greater than 50000 nM.
In the case of COc1ccc(-n2cnc3cc(NCc4ccc(OCCN(C)C)cc4)ccc32)cc1, the EC50 (Lassa virus [1]) is reported as 3300 nM.
With CC(C)c1ccc(CNc2ccc3ncn(-c4ccc(OC(C)(C)C)cc4)c3c2)cc1 the EC50 (Lassa virus [1]) was 180 nM.
Compound COc1ccc(-n2cnc3cc(NCc4ccc(CN5CCCCC5)cc4)ccc32)cc1 has an EC50 (Lassa virus [1]) of 1400 nM.
In the case of CCOc1ccc(-n2cnc3cc(NCc4cnc(CC)nc4)ccc32)cc1, the EC50 (Lassa virus [1]) is reported as 450 nM.
With COc1ccc(-n2cnc3cc(NCc4ccc(Cl)cc4)ccc32)cc1 the EC50 (Lassa virus [1]) was 47 nM.
CCOc1ccc(-n2cnc3cc(NCc4ccc(C)cn4)ccc32)cc1 showed an EC50 (Lassa virus [1]) of 350 nM.
In the case of CCOc1ccc(-n2cnc3cc(NCc4ccc(C)nc4)ccc32)cc1, the EC50 (Lassa virus [1]) is reported as 240 nM.
CCc1ccc(CNc2ccc3c(c2)ncn3-c2cnc(OC)nc2)cc1 gave an EC50 (Lassa virus [1]) of 450 nM.
COc1ccc(-n2cnc3cc(NCc4ccco4)ccc32)cc1 was tested, and the EC50 (Lassa virus [1]) was 1200 nM.
For CC(C)c1ccc(CNc2ccc3c(c2)ncn3-c2ccc(C(C)(C)C)cc2)cc1, the EC50 (Lassa virus [1]) was 4 nM.
COc1ccc(-n2cnc3cc(NCc4cccc(OC)c4OC)ccc32)cc1 showed an EC50 (Lassa virus [1]) of 160 nM.
In the case of COc1ccc(-n2cnc3cc(NCc4ccccc4OC)ccc32)cc1, the EC50 (Lassa virus [1]) is reported as 460 nM.
CC(C)c1ccc(CNc2ccc3c(c2)ncn3-c2ccc(Oc3ccccc3)cc2)cc1 was tested, and the EC50 (Lassa virus [1]) was 130 nM.
With CCCCOc1ccc(-n2cnc3cc(NCc4ccc(C(C)C)cc4)ccc32)cc1 the EC50 (Lassa virus [1]) was 5.6 nM.
Work on COc1ccc(-n2cnc3cc(NCc4ccc(CN5CCOCC5)cc4)ccc32)cc1 yielded an EC50 (Lassa virus [1]) of 790 nM.
With CCCCc1ccc(CNc2ccc3c(c2)ncn3-c2ccc(OC)cc2)cc1 the EC50 (Lassa virus [1]) was 1.5 nM.
CC(C)c1ccc(CNc2ccc3c(c2)ncn3-c2ccc(Oc3ccc4ccccc4c3)cc2)cc1 gave an EC50 (Lassa virus [1]) of 540 nM.
CCc1ccc(CNc2ccc3c(c2)ncn3-c2ccc(OC)cc2)cc1 was tested, and the EC50 (Lassa virus [1]) was 1.2 nM.
Work on CCc1ccc(CNc2ccc3c(c2)ncn3-c2ccc(OC)nc2)cc1 yielded an EC50 (Lassa virus [1]) of 32 nM.
In the case of CCOc1ccc(CNc2ccc3c(c2)ncn3-c2ccc(OC)cc2)cc1, the EC50 (Lassa virus [1]) is reported as 4 nM.
CCc1ccc(-n2cnc3cc(NCc4ccc(C(C)C)cc4)ccc32)cc1 gave an EC50 (Lassa virus [1]) of 1.9 nM.
In the case of COc1ccc(-n2cnc3cc(NCc4ccc(Cc5ccccc5)cc4)ccc32)cc1, the EC50 (Lassa virus [1]) is reported as 46 nM.
COc1ccc(-n2cnc3cc(NCc4ccc(OC(C)(C)C)cc4)ccc32)cc1 gave an EC50 (Lassa virus [1]) of 5.2 nM.
In the case of COc1ccc(-n2cnc3cc(N(Cc4ccc(C(C)C)cc4)S(=O)(=O)c4ccc(C)cc4)ccc32)cc1, the EC50 (Sabia virus) is reported as 510 nM, the EC50 (Junin virus) is reported as 16 nM and the EC50 (Machupo mammarenavirus) is reported as 40 nM. It also gave an EC50 (Lassa virus [1]) of 110 nM.
COc1ccc(-n2cnc3cc(NCc4ccc(C(C)C)cc4)ccc32)cc1 was tested, and the Activity (Lassa virus [3]) was 63%, the “fold change (FC)” value (Lassa virus [4]) was 2 and the EC50 (Guanarito virus) was 0.44 nM. The EC50 (Sabia virus) was 21 nM, the EC50 (Junin virus) was 0.62 nM and the EC50 (Machupo mammarenavirus) was 3.1 nM. The EC50 (Lassa virus [1]) was 1.4 nM.
In the case of COc1ccc(-n2cnc3cc(N(Cc4ccc(C(C)C)cc4)C(C)=O)ccc32)cc1, the EC50 (Lassa virus [1]) is reported as 380 nM.
Work on COc1ccc(-n2cnc3cc(NCc4cccc5ccccc45)ccc32)cc1 yielded an EC50 (Lassa virus [1]) of 69 nM.
Work on CC(C)c1ccc(CNc2ccc3c(c2)ncn3-c2ccc(Cc3ccccc3)cc2)cc1 yielded an EC50 (Lassa virus [1]) of 120 nM.
For NC(=O)c1ncn([C@@H]2O[C@H](CO)[C@@H](O)[C@H]2O)n1 [RIBAVIRIN], the Activity (Lassa virus [5]) was 0%.
CCCCc1ccc(-n2cnc3cc(NCc4ccc(C(C)C)cc4)ccc32)cc1 was tested, and the EC50 (Lassa virus [1]) was 4.4 nM.
For COc1ccc(-n2cnc3cc(N(C)Cc4ccc(C(C)C)cc4)ccc32)cc1, the EC50 (Lassa virus [1]) was 57 nM.
COc1ccc(-n2cnc3cc(NCc4ccc(OC)c(OC)c4)ccc32)cc1 showed an EC50 (Lassa virus [1]) of 700 nM.
In the case of COc1ccc(CNc2ccc3c(c2)ncn3-c2ccc(OC)cc2)cc1, the EC50 (Guanarito virus) is reported as 5.6 nM, the EC50 (Sabia virus) is reported as 110 nM and the EC50 (Junin virus) is reported as 7.7 nM. It also gave an EC50 (Machupo mammarenavirus) of 45 nM and an EC50 (Lassa virus [1]) of 11 nM.
Work on CC(C)c1ccc(CNc2ccc3c(c2)ncn3-c2ccc(OC(C)(C)C)cc2)cc1 yielded an EC50 (Lassa virus [1]) of 8.6 nM.
For CC(C)c1ccc(CNc2ccc3c(c2)ncn3-c2ccc(OCCc3ccccc3)cc2)cc1, the EC50 (Lassa virus [1]) was 43 nM.
Work on CCOc1ccc(-n2cnc3cc(NCc4ccc(CC(=O)O)cc4)ccc32)cc1 yielded an EC50 (Lassa virus [1]) of 1300 nM.
In the case of COc1ccc(-n2cnc3cc(NCc4ccc(C(C)(C)C)cc4)ccc32)cc1, the EC50 (Lassa virus [1]) is reported as 1.1 nM.
With CCc1ccc(CNc2ccc3c(c2)ncn3-c2ccc(OC)cn2)cc1 the EC50 (Lassa virus [1]) was 5.8 nM.
In the case of CCc1ccc(CNc2ccc3c(c2)ncn3-c2ccc(OC)nn2)cc1, the EC50 (Lassa virus [1]) is reported as 81 nM.
CC(C)c1ccc(CNc2ccc3c(c2)ncn3-c2ccccc2)cc1 gave an EC50 (Lassa virus [1]) of 5.2 nM.
COc1ccc(-n2cnc3cc(NCc4ccc(CN5CCN(C)CC5)cc4)ccc32)cc1 was tested, and the EC50 (Lassa virus [1]) was 16000 nM.
Work on CCOc1ccc(-n2cnc3cc(CNc4ccc(CC)cc4)ccc32)cc1 yielded an EC50 (Sabia virus) of 43 nM, an EC50 (Junin virus) of 5 nM and an EC50 (Machupo mammarenavirus) of 12 nM. The EC50 (Lassa virus [1]) was 11 nM.
In the case of CNc1ccc2c(c1)ncn2-c1ccc(OC)cc1, the Activity (Lassa virus [2]) is reported as “inactive”.
COc1ccc(-n2cnc3cc(NCc4ccc(Oc5ccccc5)cc4)ccc32)cc1 was tested, and the EC50 (Lassa virus [1]) was 380 nM.
